# No end group written: not given here.
# Assays:
# [1] = molecular target: T1, β-Gal (Escherichia coli, UniProt P00722); details: equimolar concentrations of enzyme and interferor (10 μM)
# Procedure: Enzyme functional readout was performed using the substrate fluorescein-di-I3-D-galactopyranoside (FDG), which is non-fluorescent but on enzymatic cleavage by β-Gal fluorescent fluorescein is liberated with intensity proportional to the catalytic activity.
# [2] = molecular target: T1, β-Gal; details: 3-state model; 25° C.; 0-4 μM peptide
# Procedure: In this in vitro experiment the affinity of different interferor peptides was measured for binding to β-gal by means of surface plasmon resonance (SPR). SPR experiments were performed at 25° C. using a Biacore T100 equipped with CM5 sensor chip (GE Healthcare.). Coupling reagents (N-ethyl-N′-(3-dimethylaminopropyl)carbodiimide (EDC), N-hydroxysuccinimide (NHS) and ethanolamine-HCI) were purchased from GE Healthcare. BSA and β-gal were purchased from Sigma-Aldrich and Roche Diagnostics, respectively. […] The proteins BSA and β-Gal were immobilized respectively, in the reference and sample channels on a CM5 sensor chip by standard amine coupling chemistry at a flow of 10 μl min^−1. The carboxymethyl dextran surface was activated by the injection of a 1:1 ratio of EDC and NHS for 7 minutes. The proteins were diluted in 10 mM sodium-acetate buffer, pH 4.5 to a final concentration of 0.2 mg m1^−1 and injected in short pulses over the activated surface until the immobilization levels reached 4000 RU or 8000 RU, for BSA and β-Gal, respectively. The remaining reactive groups were blocked with 1 M ethanolamine, pH 8. After completion of coupling, the surface was regenerated with short pulses of 50 mM NaOH and 8 M urea to remove non-covalently attached proteins. […] The peptides, dissolved in the running buffer (10 mM sodium phosphate, pH 6.8, 150 mM NaCI, 3 mM EDTA and 0.015% Tween 20) at a concentration of 1 μM, were injected for 60 s at a flow rate of 30 μl min^−1 and then allowed to dissociate for 600 s. The injection was repeated on the same surface as well as on independently immobilized surfaces. The surface was regenerated between each cycle by 30 s pulses of i) 50 mM NaOH, and ii) 8 M urea, and was allowed to stabilize for 400 s before the next cycle.
# The peptide dissolved in the running buffer was injected for 60 s at a flow-rate of 301.11min′ over the reference (BSA) and sample (β-Gal) surfaces in a range of concentrations (0-4 μM, with one internal replicate) and were then allowed to dissociate for 600 s. The concentration series were repeated on the same surface (three times) as well as on independently immobilized surfaces. The surface was regenerated between each cycle by 30 s pulses of i) 50 mM NaOH, and ii) 8 M urea, and was allowed to stabilize for 400 s before the next cycle.
# The data were globally fitted to a three-state model, using the Biacore T100 software, assuming an initial encounter between the peptide in solution and the protein on the chip followed by a two-step rearrangement before an identical binding site becomes available at the growing β-sheet.
# [3] = molecular target: T2, mVEGFR2 (Mus musculus, UniProt P35918); assay: Immunohistochemical staining of mVEGFR2 in HEK293 cells (cellular localization); type: cell-based; details: 10 μM, overnight treatment
# T2 construct: expressed in transfected cells; host or cells: HEK293
# T2 sequence (P35918 20-1345): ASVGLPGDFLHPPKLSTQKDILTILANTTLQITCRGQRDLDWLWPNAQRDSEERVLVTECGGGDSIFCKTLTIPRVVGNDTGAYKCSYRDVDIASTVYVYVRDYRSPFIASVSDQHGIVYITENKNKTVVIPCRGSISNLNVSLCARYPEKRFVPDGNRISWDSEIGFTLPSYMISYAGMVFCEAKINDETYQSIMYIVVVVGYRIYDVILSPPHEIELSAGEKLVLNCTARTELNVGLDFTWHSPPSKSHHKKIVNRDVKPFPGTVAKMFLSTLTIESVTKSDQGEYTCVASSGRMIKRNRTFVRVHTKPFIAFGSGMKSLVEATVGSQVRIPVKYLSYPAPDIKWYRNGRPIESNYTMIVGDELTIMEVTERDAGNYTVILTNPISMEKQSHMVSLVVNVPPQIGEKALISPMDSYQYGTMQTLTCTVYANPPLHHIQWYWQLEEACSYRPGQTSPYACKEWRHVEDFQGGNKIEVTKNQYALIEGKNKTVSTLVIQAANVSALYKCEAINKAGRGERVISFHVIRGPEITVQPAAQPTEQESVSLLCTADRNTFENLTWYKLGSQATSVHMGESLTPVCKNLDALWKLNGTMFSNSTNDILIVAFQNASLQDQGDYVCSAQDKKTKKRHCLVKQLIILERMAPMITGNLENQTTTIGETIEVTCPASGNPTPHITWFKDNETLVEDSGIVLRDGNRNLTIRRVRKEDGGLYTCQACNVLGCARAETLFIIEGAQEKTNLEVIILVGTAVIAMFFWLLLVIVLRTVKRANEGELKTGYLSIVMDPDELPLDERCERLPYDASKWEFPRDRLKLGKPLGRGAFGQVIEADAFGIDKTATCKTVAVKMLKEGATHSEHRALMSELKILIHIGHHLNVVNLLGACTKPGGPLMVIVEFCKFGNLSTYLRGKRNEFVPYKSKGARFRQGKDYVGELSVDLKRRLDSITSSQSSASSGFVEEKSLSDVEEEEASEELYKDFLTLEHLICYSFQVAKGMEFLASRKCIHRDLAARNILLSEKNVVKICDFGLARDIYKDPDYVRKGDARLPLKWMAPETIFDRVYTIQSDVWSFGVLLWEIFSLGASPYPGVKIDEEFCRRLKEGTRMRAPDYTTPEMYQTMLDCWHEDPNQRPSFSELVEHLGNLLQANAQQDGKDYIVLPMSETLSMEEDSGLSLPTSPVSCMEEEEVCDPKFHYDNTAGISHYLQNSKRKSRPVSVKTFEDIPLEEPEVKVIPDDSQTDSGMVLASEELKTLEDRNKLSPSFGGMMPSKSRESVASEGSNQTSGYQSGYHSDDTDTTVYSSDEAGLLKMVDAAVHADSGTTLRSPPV
# Procedure: To better understand the cellular mechanism of peptide inhibition, a preliminary experiment was performed in which cells were stained with an anti-VEGFR2 antibody to track the cellular localization.
# [4] = tested on: EGFR family; assay: EGF-induced ERK1/2 phosphorylation in HeLa cells (cross reactivity of VEGFR2 peptides); type: cell-based, human; details: EGF 25 ng/ml
# Procedure: As a next step, to test the specificity of the VEGFR2 peptides, we tested their cross reactivity towards the EGFR family. Therefore, HeLa cells were treated with peptide B8 and B12 and subsequently stimulated with EGF (25ng/ml).
# [5] = tested on: human erythrocytes; type: cell-based
# Text: The detergent Tween was used as a positive control, causing 100% lysis of RBCs.
# [6] = tested on: S. aureus ATCC 27853; assay: Invasion assay: bacteria in infected HCT116 cell monolayers (CFU count); type: cell-based; details: 100 μg/ml, 90 minutes infection, 1 h treatment
# Procedure: In this assay HCT116 cell monolayers (a human colon tumor cell line) were cultured at the bottom of a microwell plate. The next day fresh S. aureus ATCC 27853 bacteria were added (approximately 10^6 CFU/ml) and a negative uninfected control included. After 90 minutes of infection different dilution of peptides were added and the cultures were incubated for another hour. As a positive control Gentamycin was used, given that it has a good intracellular activity. Each well was washed with pre-warmed physiological water to get rid of any extra-cellular bacteria, followed by 1% Triton treatment to release all entrapped bacteria from mammalian cells. The content of the well was serially diluted and plated on TSA agar plates for CFU count.
# [7] = tested on: Corynebacterium; details: peptides with purity of >95%
# [8] = tested on: S. aureus
# [9] = tested on: Candida albicans SC5314; assay: In vitro mature C. albicans biofilm formation on polystyrene (XTT reduction assay); type: cell-based; details: 250 μM, 50 μM and 10 μM; peptide during adhesion only or during whole biofilm development; p<0.001
# Procedure: The initial screening and search for optimal Als3 candidate interferors was based on the C. albicans SC5314 adhesion assay on 96-well polystyrene plates upon administration of all the peptides at three different concentrations (250 μM, 50 μM and 10 μM). Based on the results obtained with this adhesion assay, we also tested the effect of peptides on mature biofilm development. The final election of the most optimal candidate interferor peptides was based on the results showing reduction in adhesion and mature biofilm formation caused by the lowest concentration of the peptide tested (10 μM or 2.5 μM).
# In a next step, lower concentrations of peptide F9 (50 μM, 10 μM and 2.5 μM) were also tested. […] Both assays were performed in 96-well polystyrene plates and quantified by the XTT reduction assay (see material and methods section).
# In vitro C. albicans biofilm was studied on three different types of biomaterials, namely flat bottom 96-well polystyrene plate (Greiner Bio-One, Germany), silicone (CS Hyde, USA) and polyurethane triple lumen intravenous catheters (2.4mm diameter) (Arrow International Reading, USA). […] After that, the biofilms were washed twice with 1×PBS and quantified.
# The metabolic activity of Candida cells within in vitro biofilms was studied using the XTT reduction assay. […] The intensity of colorimetric change was measured by spectrophotometer (Spectra max Plus 384) at 490 nm. […]
# [10] = tested on: S. epidermidis
# Procedure: Bacteria were grown in a shaking incubator at 37° C. and 160rpm in 50 ml BHI , using individual colonies retrieved from a fresh overnight TSA-sheep blood plate. The cultures were grown to a density of approximately 1×10^8cells/ml and then diluted to 5×10^5 cells/ml in CAMHB (Mc Farland 0.5). Each well contained 100p.I (50p.I of peptide containing MHB plus 50 μl inoculum). The final cell density was 1×10^5 to 5×10^5/ml. After addition of the cell suspension, plates were incubated at 37° C. for 18 to 24 hours. The optical density at 590 nm (OD590) of each well was measured after 5 seconds of shaking the plate using Perkin Elmer spectrophotometer (1420 Multilabel Counter Vicotr 3). […] Each well, where no growth was observed, was also plated on TSA-sheep blood agar plates, incubated at 37° C. overnight and visually inspected.
# A microbroth dilution method was used with twofold serial dilutions in CAMHB (according to EMEA guidelines) was used for screening of peptide activity, with concentrations ranging from 0.3 μg/mIto 200 μg/ml.
# [11] = tested on: E. cloacae
# T1 sequence (P00722 2-1024 with the stated changes limits assumed): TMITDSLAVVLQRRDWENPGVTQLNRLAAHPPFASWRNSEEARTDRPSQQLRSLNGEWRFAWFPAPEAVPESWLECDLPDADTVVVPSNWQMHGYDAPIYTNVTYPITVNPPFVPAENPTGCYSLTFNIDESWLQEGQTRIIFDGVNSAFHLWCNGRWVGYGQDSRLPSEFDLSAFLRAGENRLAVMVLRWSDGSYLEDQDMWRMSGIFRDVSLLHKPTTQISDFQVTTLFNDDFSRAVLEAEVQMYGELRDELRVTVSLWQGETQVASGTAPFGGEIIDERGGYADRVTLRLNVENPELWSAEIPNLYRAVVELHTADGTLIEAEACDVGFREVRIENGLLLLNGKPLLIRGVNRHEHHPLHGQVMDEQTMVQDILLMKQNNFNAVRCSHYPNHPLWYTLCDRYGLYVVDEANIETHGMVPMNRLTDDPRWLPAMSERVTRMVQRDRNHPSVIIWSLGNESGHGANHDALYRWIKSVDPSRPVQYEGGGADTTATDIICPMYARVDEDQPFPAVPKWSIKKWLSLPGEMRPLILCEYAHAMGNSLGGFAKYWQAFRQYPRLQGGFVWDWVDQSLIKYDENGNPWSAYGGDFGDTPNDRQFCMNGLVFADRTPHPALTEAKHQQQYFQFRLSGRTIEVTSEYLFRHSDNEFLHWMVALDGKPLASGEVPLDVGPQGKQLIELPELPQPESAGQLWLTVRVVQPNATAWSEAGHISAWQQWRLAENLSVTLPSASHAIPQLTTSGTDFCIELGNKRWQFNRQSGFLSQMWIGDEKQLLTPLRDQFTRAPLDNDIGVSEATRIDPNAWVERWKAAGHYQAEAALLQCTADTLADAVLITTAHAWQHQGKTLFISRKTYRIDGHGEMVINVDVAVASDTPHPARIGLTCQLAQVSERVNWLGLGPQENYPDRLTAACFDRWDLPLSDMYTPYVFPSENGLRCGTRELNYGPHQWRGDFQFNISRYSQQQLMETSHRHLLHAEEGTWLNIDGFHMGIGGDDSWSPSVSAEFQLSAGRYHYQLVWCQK
substance,measurement,setting,value
(His)6~RVIIWSLGNR [Tango 2 peptide],enzymatic activity of β-galactosidase,[1],complete inhibition of enzymatic activity
same,ka1,[2],2.744E+4
same,ka1 (second value printed),[2],0.02359
same,ka3,[2],0.005491
same,kd1,[2],0.4123
same,kd2,[2],0.02509
same,kd3,[2],0.002654
DLAVALWFDPPDLAVALWFD [B8],cellular localization of VEGFR2,[3],no longer present on the cell surface
same,ERK1/2 phosphorylation after EGF stimulation,[4],do not inhibit ERK1/2 phosphorylation
RFFIGLSRRGSRLFNFLKR [Hit57A],hemolytic activity,[5],no significant hemolytic activity at clinically relevant concentrations
same,numbers of bacteria in infected cell monolayers,[6],effectively reduced the numbers of bacteria in infected cell monolayers
same,MIC values against Corynebacterium,[7],Not active
same,MIC,[8],50 µg/mL
same,MIC in presence of 50% FBS,[8],100 µg/mL
same,MIC values against MRSA 326,[8],6 µg/mL
RNGIVIVATTR [E1],biofilm formation (metabolic activity compared to control),[9],significant reduction in biofilm formation
RRLFNFLKRGSRLFNFLKR [Hit24],hemolytic activity,[5],no significant hemolytic activity at clinically relevant concentrations
same,MIC values against S.epidermidis ATCC 12228,[10],1.5 µg/mL
same,MIC,[11],25 µg/mL
same,MIC values against S.aureus ATCC 29213,[8],12.5 µg/mL

# From US20220033448A1, “METHODS FOR AGGREGATION OF PROTEINS” (priority 2011, published 2022)
